# Experimental data: ChEMBL document CHEMBL1201862, “PubChem BioAssay data set” (2004)
#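 Values below derive from 48-hour exposures of cells grown in 96-well plates, with endpoints linearly interpolated between the two concentrations bracketing the appropriate inhibition level. GI50: concentration for 50% inhibition of growth.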 The source made the active and inactive calls. Cut-off read from the data, not from the text of the source: active = GI50 up to about 1.1 µM and inactive = higher.
# Assays:
# Test in all cases: DTP human tumour cell line panel, 48 h
# 786-0 = tested on: 786-0
# A549 = tested on: A549
# ACHN = tested on: ACHN
# BT-549 = tested on: BT-549
# CAKI-1 = tested on: CAKI-1
# COLO 205 = tested on: COLO 205
# DU-145 = tested on: DU-145
# EKVX = tested on: EKVX
# HCC 2998 = tested on: HCC 2998
# HCT-116 = tested on: HCT-116
# HCT-15 = tested on: HCT-15
# HOP-62 = tested on: HOP-62
# IGROV-1 = tested on: IGROV-1
# KM12 = tested on: KM12
# LOX IMVI = tested on: LOX IMVI
# M14 = tested on: M14
# MCF7 = tested on: MCF7
# MDA-MB-231 = tested on: MDA-MB-231
# MDA-N = tested on: MDA-N
# Malme-3M = tested on: Malme-3M
# NCI-H226 = tested on: NCI-H226
# NCI-H23 = tested on: NCI-H23
# NCI-H460 = tested on: NCI-H460
# NCI-H522 = tested on: NCI-H522
# NCI/ADR-RES = tested on: NCI/ADR-RES
# OVCAR-3 = tested on: OVCAR-3
# OVCAR-5 = tested on: OVCAR-5
# PC-3 = tested on: PC-3
# RXF 393 = tested on: RXF 393
# SF-268 = tested on: SF-268
# SF-295 = tested on: SF-295
# SF-539 = tested on: SF-539
# SK-MEL-5 = tested on: SK-MEL-5
# SK-OV-3 = tested on: SK-OV-3
# SNB-19 = tested on: SNB-19
# TK-10 = tested on: TK-10
# UACC-257 = tested on: UACC-257
# UACC-62 = tested on: UACC-62
# UO-31 = tested on: UO-31
# A498 = tested on: A498
# HOP-92 = tested on: HOP-92
# MDA-MB-435 = tested on: MDA-MB-435
# MOLT-4 = tested on: MOLT-4
# OVCAR-4 = tested on: OVCAR-4
# OVCAR-8 = tested on: OVCAR-8
# SK-MEL-2 = tested on: SK-MEL-2
# SN12C = tested on: SN12C
# SNB-75 = tested on: SNB-75
# SW-620 = tested on: SW-620
# T47D = tested on: T47D
# CCRF-CEM = tested on: CCRF-CEM
# HL-60 = tested on: HL-60
# HT-29 = tested on: HT-29
# Hs-578T = tested on: Hs-578T
# K562 = tested on: K562
# RPMI-8226 = tested on: RPMI-8226
# SK-MEL-28 = tested on: SK-MEL-28
# SR = tested on: SR
# U-251 = tested on: U-251
compound,measurement,setting,value
C=CCn1c(-c2ccccc2)cs/c1=N\C(P(=O)(O)O)P(=O)(O)O,GI50,786-0,> 100 µM (inactive)
same,GI50,A549,> 100 µM (inactive)
same,GI50,ACHN,> 100 µM (inactive)
same,GI50,BT-549,> 100 µM (inactive)
same,GI50,CAKI-1,> 100 µM (inactive)
same,GI50,COLO 205,> 100 µM (inactive)
same,GI50,DU-145,> 100 µM (inactive)
same,GI50,EKVX,> 100 µM (inactive)
same,GI50,HCC 2998,> 100 µM (inactive)
same,GI50,HCT-116,> 100 µM (inactive)
same,GI50,HCT-15,> 100 µM
same,GI50,HOP-62,> 100 µM (inactive)
same,GI50,IGROV-1,> 100 µM (inactive)
same,GI50,KM12,> 100 µM (inactive)
same,GI50,LOX IMVI,> 100 µM (inactive)
same,GI50,M14,> 100 µM (inactive)
same,GI50,MCF7,> 100 µM (inactive)
same,GI50,MDA-MB-231,> 100 µM (inactive)
same,GI50,MDA-N,> 100 µM (inactive)
same,GI50,Malme-3M,> 100 µM (inactive)
same,GI50,NCI-H226,> 100 µM (inactive)
same,GI50,NCI-H23,> 100 µM (inactive)
same,GI50,NCI-H460,> 100 µM (inactive)
same,GI50,NCI-H522,> 100 µM (inactive)
same,GI50,NCI/ADR-RES,> 100 µM (inactive)
same,GI50,OVCAR-3,> 100 µM (inactive)
same,GI50,OVCAR-5,> 100 µM (inactive)
same,GI50,PC-3,> 100 µM (inactive)
same,GI50,RXF 393,> 100 µM (inactive)
same,GI50,SF-268,> 100 µM (inactive)
same,GI50,SF-295,> 100 µM (inactive)
same,GI50,SF-539,> 100 µM (inactive)
same,GI50,SK-MEL-5,> 100 µM (inactive)
same,GI50,SK-OV-3,> 100 µM (inactive)
same,GI50,SNB-19,> 100 µM (inactive)
same,GI50,TK-10,> 100 µM (inactive)
same,GI50,UACC-257,> 100 µM (inactive)
same,GI50,UACC-62,> 100 µM (inactive)
same,GI50,UO-31,> 100 µM (inactive)
CNc1ccc(C(=O)CC(O)CCC(C)C2OC(=O)CC(O)CC(=O)CC(O)CC(O)CC(O)CC(O)CC3(O)CC(O)C(C(=O)NCCN4CCOCC4)C(CC(OC4OC(C)C(O)C(N)C4O)\C=C/C=C\C=C/C=C/C=C/C=C\C=C/C2C)O3)cc1 (stereo not drawn),GI50,786-0,1.01 µM (active)
same,GI50,A498,0.321 µM (active)
same,GI50,BT-549,1.64 µM (inactive)
same,GI50,HCT-116,> 100 µM (inactive)
same,GI50,HOP-92,> 100 µM (inactive)
same,GI50,IGROV-1,6.34 µM (inactive)
same,GI50,KM12,2.84 µM (inactive)
same,GI50,MDA-MB-435,1.56 µM (inactive)
same,GI50,MDA-N,0.701 µM (active)
same,GI50,MOLT-4,2.3 µM (inactive)
same,GI50,Malme-3M,0.267 µM (active)
same,GI50,NCI-H226,3.81 µM (inactive)
same,GI50,NCI-H522,0.493 µM (active)
same,GI50,OVCAR-4,2.74 µM (inactive)
same,GI50,OVCAR-8,4.23 µM (inactive)
same,GI50,RXF 393,> 100 µM (inactive)
same,GI50,SF-539,16 µM (inactive)
same,GI50,SK-MEL-2,6.43 µM (inactive)
same,GI50,SN12C,0.417 µM (active)
same,GI50,SNB-19,> 100 µM (inactive)
same,GI50,SNB-75,> 100 µM (inactive)
same,GI50,SW-620,> 100 µM (inactive)
same,GI50,T47D,> 100 µM (inactive)
same,GI50,TK-10,1.52 µM (inactive)
same,GI50,UACC-257,0.537 µM (active)
same,GI50,UACC-62,1.68 µM (inactive)
same,GI50,UO-31,0.404 µM (active)
COc1cc(CNC(=O)CCCCCCCC/C=C/Br)ccc1O,GI50,786-0,> 10 µM (inactive)
same,GI50,A498,> 10 µM (inactive)
same,GI50,A549,> 10 µM (inactive)
same,GI50,ACHN,> 10 µM (inactive)
same,GI50,CAKI-1,> 10 µM (inactive)
same,GI50,CCRF-CEM,> 10 µM (inactive)
same,GI50,COLO 205,> 10 µM (inactive)
same,GI50,DU-145,> 10 µM (inactive)
same,GI50,EKVX,> 10 µM (inactive)
same,GI50,HCC 2998,> 10 µM (inactive)
same,GI50,HCT-116,> 10 µM (inactive)
same,GI50,HCT-15,> 10 µM
same,GI50,HL-60,> 10 µM (inactive)
same,GI50,HOP-62,> 10 µM (inactive)
same,GI50,HOP-92,> 10 µM (inactive)
same,GI50,HT-29,> 10 µM (inactive)
same,GI50,Hs-578T,> 10 µM (inactive)
same,GI50,IGROV-1,> 10 µM (inactive)
same,GI50,K562,> 10 µM (inactive)
same,GI50,KM12,> 10 µM (inactive)
same,GI50,LOX IMVI,> 10 µM (inactive)
same,GI50,M14,> 10 µM (inactive)
same,GI50,MCF7,> 10 µM (inactive)
same,GI50,MDA-MB-231,> 10 µM (inactive)
same,GI50,MDA-MB-435,> 10 µM (inactive)
same,GI50,MDA-N,> 10 µM (inactive)
same,GI50,MOLT-4,> 10 µM (inactive)
same,GI50,Malme-3M,> 10 µM (inactive)
same,GI50,NCI-H226,> 10 µM (inactive)
same,GI50,NCI-H23,> 10 µM (inactive)
same,GI50,NCI-H460,> 10 µM (inactive)
same,GI50,NCI-H522,> 10 µM (inactive)
same,GI50,NCI/ADR-RES,> 10 µM (inactive)
same,GI50,OVCAR-3,> 10 µM (inactive)
same,GI50,OVCAR-4,> 10 µM (inactive)
same,GI50,OVCAR-8,> 10 µM (inactive)
same,GI50,PC-3,> 10 µM (inactive)
same,GI50,RPMI-8226,> 10 µM (inactive)
same,GI50,RXF 393,> 10 µM (inactive)
same,GI50,SF-268,> 10 µM (inactive)
same,GI50,SF-295,> 10 µM (inactive)
same,GI50,SF-539,> 10 µM (inactive)
same,GI50,SK-MEL-28,> 10 µM (inactive)
same,GI50,SK-MEL-2,> 10 µM (inactive)
same,GI50,SK-MEL-5,> 10 µM (inactive)
same,GI50,SK-OV-3,> 10 µM (inactive)
same,GI50,SN12C,> 10 µM (inactive)
same,GI50,SNB-19,> 10 µM (inactive)
same,GI50,SNB-75,> 10 µM (inactive)
same,GI50,SR,> 10 µM (inactive)
same,GI50,SW-620,> 10 µM (inactive)
same,GI50,T47D,> 10 µM (inactive)
same,GI50,TK-10,> 10 µM (inactive)
same,GI50,U-251,> 10 µM (inactive)
same,GI50,UACC-257,> 10 µM (inactive)
same,GI50,UACC-62,> 10 µM (inactive)
same,GI50,UO-31,> 10 µM (inactive)
